# In US20240066135A1, “DRUG CONJUGATES AND USES THEREOF” (SUPERTRANS MEDICAL LTD, priority 2020, published 2024):
# Where two headings read alike, the source gives them in different places.
# Key:
# [1] = hRPTEC biomarkers cytotoxicity screen; type: cell-based; conditions: human, human renal proximal tubular epithelial cells (hRPTEC); cell count, nuclear size, DNA structure, mitochondrial mass and membrane potential, phospholipidosis, glutathione content
# MRSA infections = conditions: 150 mg/kg in rats, 100 mg/kg in dogs, 15 mg/kg in humans; cited from earlier work
# E. coli UTI89 = assay: 24 h thigh muscle infection model in neutropenic mice; type: in vivo, CD-1 mice
# Description: FIG. 4 illustrates the efficacy of V-r in reducing E. coli UTI89 bacterial burden in a 24 h thigh muscle infection model in neutropenic CD-1 mice.
# In a 24 h thigh muscle infection model, E. coli UTI89 was inoculated at 7.8×10^4 CFU into one thigh muscle per mouse (n=5-8/group) and treated with V-r (total dose of […]) using a q6h dosing regimen from 1 h post-infection. […] Overall, V-r caused a ˜4 to 7.5 log10 reduction in bacterial burden, as compared to vehicle control, over the entire dose range.
# HepG2 cell cytotoxicity = type: cell-based; conditions: human, HepG2 cells; FBS-deficient media
# [2] = Plasma protein binding, human; type: in vitro ADME; conditions: read-out: PPB, % bound, human (converted)
# E. coli ATCC 25922 [3] = assay: 9 h thigh muscle infection model in neutropenic mice; type: in vivo, CD-1 mice
# Description: Using a screening-based strategy, preliminary proof-of-concept studies with V-r employed an abbreviated 9 h thigh muscle infection model in male CD-1 mice rendered neutropenic. To that end, E. coli ATCC 25922 was inoculated at 9.7×10^4 CFUs into both thigh muscles per mouse (n=5 per experimental group). V-r was administered q2h SC (110-880 mg/kg total dose) starting 1 h post-infection. At 9 h, thigh homogenates were prepared and CFUs were enumerated following culture on CLED agar.
# [4] = Plasma protein binding, mouse; type: in vitro ADME; conditions: read-out: PPB, % bound, mouse
# A. baumannii = assay: MIC testing, A. baumannii; type: cell-based; conditions: Acinetobacter baumannii
# Description: (§1) Susceptibility testing was performed based on Clinical and Laboratory Standards Institute (CLSI) guidelines M07-A11 and M100-S29. All bacterial strains were recovered from long-term storage (−80° C.) and cultured on nutrient agar (NA) at 37° C. under aerobic conditions for approximately 20 h, except E. coli ATCC BAA-2469 that was recovered from long-term storage on nutrient agar before further passaging onto nutrient agar+25 μg/mL imipenem (according to ATCC guidelines). Minimum inhibitory concentration (MIC) assays were performed in BD non cation adjusted Mueller-Hinton broth (MHB) in 96-well flat-bottomed polystyrene plates (Corning #3370). Test articles and comparator antibiotics were prepared in sterile water to a concentration of 5.12 mg/mL. For each antibiotic stock, 2× top concentrations of test compounds and comparators were prepared in the appropriate growth medium and added to well 1 of a 96-well plate. Serial 1:1 dilutions were performed from columns 1-11 (changing tips at each dilution step); column 12 served as a positive (growth) control. A negative (sterility) control was set up in available spare wells. A suspension of each strain was prepared in sterile phosphate-buffered saline (PBS) to a density equivalent to a 0.5 McFarland standard. […]
# (§2) MICs were determined using standard methodologies as previously described. […]
# [5] = Thermodynamic solubility in saline; type: physicochemical; conditions: saline or isotonic, thermodynamic from solid; read-out: TD solubility in saline
# E. coli = assay: MIC testing, E. coli; type: cell-based
# Description: Susceptibility testing was performed based on Clinical and Laboratory Standards Institute (CLSI) guidelines M07-A11 and M100-S29. All bacterial strains were recovered from long-term storage (−80° C.) and cultured on nutrient agar (NA) at 37° C. under aerobic conditions for approximately 20 h, except E. coli ATCC BAA-2469 that was recovered from long-term storage on nutrient agar before further passaging onto nutrient agar+25 μg/mL imipenem (according to ATCC guidelines). Minimum inhibitory concentration (MIC) assays were performed in BD non cation adjusted Mueller-Hinton broth (MHB) in 96-well flat-bottomed polystyrene plates (Corning #3370). Test articles and comparator antibiotics were prepared in sterile water to a concentration of 5.12 mg/mL. For each antibiotic stock, 2× top concentrations of test compounds and comparators were prepared in the appropriate growth medium and added to well 1 of a 96-well plate. Serial 1:1 dilutions were performed from columns 1-11 (changing tips at each dilution step); column 12 served as a positive (growth) control. A negative (sterility) control was set up in available spare wells. A suspension of each strain was prepared in sterile phosphate-buffered saline (PBS) to a density equivalent to a 0.5 McFarland standard. Bacterial suspensions were then diluted 1:150 in the appropriate medium and used to inoculate assay plates (columns 1 through 11) to provide a starting inoculum of ˜2 to 8×10^5 CFU/mL. […] The MIC was defined as the lowest concentration of test articles resulting in complete inhibition of visible growth.
# MICs were determined using standard methodologies as previously described. […] Time-kill assays were performed against uropathogenic E. coli strains, including the sequence type 131 (ST131) NCTC-13341 isolate.
# Red blood cell lysis = type: cell-based; conditions: human, human erythrocytes; FBS-deficient media
# GPB = assay: MIC testing, GPB; type: cell-based; conditions: FIG. 2
# Description: as §1, §2
# LogD (Octanol/buffer) = type: physicochemical
# [6] = PK profiles in mice, IV vs SC administration; type: in vivo; conditions: IV 10 mg/kg, SC 20 mg/kg
# Excerpt: FIG. 11 illustrates the feasibility of adaptation of V-r as a low-dose therapy to treat E. coli-associated cUTIs via sub-cutaneous administration.
# Adaptation of V-r as a low-dose therapy to treat E. coli-associated cUTIs via sub-cutaneous administration was further investigated. Vancomycin can only be given by IV infusion therapy to treat systemic infections. Due to the very low dose therapy of V-r, additional modes of administration of the drug can be pursued besides IV administration pending retention of high bioavailability. In mice, the exposure of V-r (measured by the AUC) following sub-cutaneous administration was essentially 100% of that afforded by IV administration (see FIG. 11). […] Such a finding is critically important for hospitalized cUTIs (and other infections) whereby the SC route might offer a “go-home sooner” of patients and thus early discharge from the hospital for continued low dose V-r therapy from outpatient departments or within the clinical community settings. Such an approach facilitates the practice of prudent antimicrobial stewardship.
# in vivo [7] = conditions: male, CD-1, mouse, plasma, sc
# E. coli ATCC 25922 [8] = type: cell-based
# [9] = test system: E. coli UNT057-1 (CTX-M-15); assay: Complicated urinary tract infection (cUTI) model
# Description: Female C3H/Hej mice were placed on a 5% glucose water starting 6 days prior to infection and then for the remainder of the study. The complicated urinary tract infection (cUTI) model was established via trans-urethral injection of the bacterial inoculum. Mice were anesthetized with Ketamine HCL at 40 mg/kg body weight and Xylazine at 6 mg/kg body weight in 0.15 ml PBS injected intra-peritoneally. Using a dissection scope (10×), the urethral orifice was located and a tapered PE10 catheter (attached to MRE40 tubing and a 23 G blunt hub syringe) was inserted and 0.05 ml of the prepared inoculum slowly injected. […] E. coli UNT057-1 (CTX-M-15) strain was used for the cUTI model and inoculum grown in Tryptic soy broth (TSB) to 1.0×10^10 CFU/ml suspension. […] A positive control of meropenem was given at 300 mg/kg q12h by sub-cutaneous administration for a total of 3 days. All treatment groups consisted of 10 animals with CFU (kidneys, bladder and urine) bacterial counts at 7 days post-infection used as the endpoint for efficacy. At 7 days post-infection, urine was collected from mice into 1.5 ml sterile tubes and then mice were euthanized. Kidneys and bladders were homogenized, and the homogenates and urine were serially diluted in 1×PBS and plated onto Brain heart infusion and 0.5% charcoal agar. Agar plates were incubated at 37° C., and colony counts were recorded the following day.
# [10] = for Cl / Vd: CD-1 mice
# [11] = Single SC administration tolerability; type: in vivo; conditions: highest dose tested (800 mg/kg), male CD-1 mice
# [12] = for AUC: mice
# in vivo [13] = conditions: beagle, dog, iv, 25 mg/kg
# [14] = total dose over 24 h 1272 mg/kg
# [15] = total dose over 24 h 200 mg/kg, q6h
# [16] = total dose over 24 h 1050 mg/kg
# [17] = total dose over 24 h 1400 mg/kg
# [18] = total dose over 9 h 110 mg/kg, q2h SC
compound,measurement,setting,value
"CN[C@H](CC(C)C)C(=O)N[C@H]1C(=O)N[C@@H](CC(N)=O)C(=O)N[C@H]2C(=O)N[C@H]3C(=O)N[C@H](C(=O)N[C@H](C(=O)O)c4cc(O)cc(O)c4-c4cc3ccc4O)[C@H](O)c3ccc(c(Cl)c3)Oc3cc2cc(c3O[C@@H]2O[C@H](CO)[C@@H](O)[C@H](O)[C@H]2O[C@H]2C[C@](C)(N)[C@H](O)[C@H](C)O2)Oc2ccc(cc2Cl)[C@H]1O [Vancomycin, vancomycin, reference compound]",CC50,[1],> 100 µM
same,target AUC in the treatment of MRSA infections,MRSA infections,approximately 400 mg·h/l
same,Log10 Group Geometric mean (CFU/g) ± SD,E. coli UTI89; [14],8.48 ± 1.31 Log10 CFU/g
same,Log10 change from vehicle (CFU/g),E. coli UTI89; [14],−1.23 Log10 CFU/g
same,CC50,HepG2 cell cytotoxicity,> 750 µM
same,fraction unbound,[2],0.5
same,impact on E. coli burden,E. coli ATCC 25922 [3]; dose equivalent to the highest dose of V-r,failed to significantly impact E. coli burden
same,Log10 Group Geometric mean (CFU/g) ± SD,E. coli ATCC 25922 [3]; total dose over 9 h 800 mg/kg,6.60 ± 0.66 Log10 CFU/g
same,Log10 change from vehicle (CFU/g),E. coli ATCC 25922 [3]; total dose over 9 h 800 mg/kg,−0.51 Log10 CFU/g
same,fraction unbound,[4],0.5
same,MIC,A. baumannii; read-out: MICs,64 to 256 µg/mL
same,solubility,[5],> 50 mg/mL
same,MIC,"E. coli; Escherichia coli, read-out: MICs",64 to 256 µg/mL
same,CC50,Red blood cell lysis,> 750 µM
"CN[C@H](CC(C)C)C(=O)N[C@H]1C(=O)N[C@@H](CC(N)=O)C(=O)N[C@H]2C(=O)N[C@H]3C(=O)N[C@H](C(=O)N[C@H](C(=O)N[C@H](CCCNC(=N)N)C(N)=O)c4cc(O)cc(O)c4-c4cc3ccc4O)[C@H](O)c3ccc(c(Cl)c3)Oc3cc2cc(c3O[C@@H]2O[C@H](CO)[C@@H](O)[C@H](O)[C@H]2O[C@H]2C[C@](C)(N)[C@H](O)[C@H](C)O2)Oc2ccc(cc2Cl)[C@H]1O [V-r, vancomycin-D-arginine]",CC50,[1],> 100 µM
same,antimicrobial potency towards a number of GPB,GPB,remained intact
same,reduction of burden below stasis,E. coli UTI89; all doses higher than 200 mg/kg,up to 2.7 log10 CFU/g
same,total 24 h dose reducing E. coli burden to pre-treatment (stasis) levels,E. coli UTI89; static dose,250 mg/kg
same,reduction of E. coli burden,E. coli UTI89; thigh muscle model,> 7 log10 CFU/g
same,Log10 Group Geometric mean (CFU/g) ± SD,E. coli UTI89; [15],5.60 ± 2.28 Log10 CFU/g
same,Log10 change from vehicle (CFU/g),E. coli UTI89; [15],−4.11 Log10 CFU/g
same,Log10 Group Geometric mean (CFU/g) ± SD,E. coli UTI89; total dose over 24 h 400 mg/kg,3.27 ± 1.88 Log10 CFU/g
same,Log10 change from vehicle (CFU/g),E. coli UTI89; total dose over 24 h 400 mg/kg,−6.43 Log10 CFU/g
same,Log10 Group Geometric mean (CFU/g) ± SD,E. coli UTI89; total dose over 24 h 700 mg/kg,2.58 ± 0.25 Log10 CFU/g
same,Log10 change from vehicle (CFU/g),E. coli UTI89; total dose over 24 h 700 mg/kg,−7.13 Log10 CFU/g
same,Log10 Group Geometric mean (CFU/g) ± SD,E. coli UTI89; [16],2.08 ± 0.89 Log10 CFU/g
same,Log10 change from vehicle (CFU/g),E. coli UTI89; [16],−7.63 Log10 CFU/g
same,Log10 Group Geometric mean (CFU/g) ± SD,E. coli UTI89; [17],2.68 ± 1.38 Log10 CFU/g
same,Log10 change from vehicle (CFU/g),E. coli UTI89; [17],−7.03 Log10 CFU/g
same,CC50,HepG2 cell cytotoxicity,> 750 µM
same,logD,LogD (Octanol/buffer),< -4.01
same,fraction unbound,[2],0.24
same,reduction below stasis,E. coli ATCC 25922 [3]; 440 mg/kg,1.0 log10
same,reduction below stasis,E. coli ATCC 25922 [3]; 880 mg/kg,1.3 log10
same,extrapolated static dose,"E. coli ATCC 25922 [3]; 9 h model, total dose",215 mg/kg
same,Log10 Group Geometric mean (CFU/g) ± SD,E. coli ATCC 25922 [3]; [18],5.87 ± 0.60 Log10 CFU/g
same,Log10 change from vehicle (CFU/g),E. coli ATCC 25922 [3]; [18],−1.24 Log10 CFU/g
same,Log10 Group Geometric mean (CFU/g) ± SD,E. coli ATCC 25922 [3]; total dose over 9 h 440 mg/kg,4.14 ± 0.63 Log10 CFU/g
same,Log10 change from vehicle (CFU/g),E. coli ATCC 25922 [3]; total dose over 9 h 440 mg/kg,−2.97 Log10 CFU/g
same,Log10 Group Geometric mean (CFU/g) ± SD,E. coli ATCC 25922 [3]; total dose over 9 h 880 mg/kg,3.76 ± 0.40 Log10 CFU/g
same,Log10 change from vehicle (CFU/g),E. coli ATCC 25922 [3]; total dose over 9 h 880 mg/kg,−3.35 Log10 CFU/g
same,exposure following sub-cutaneous vs IV administration,[6],essentially equivalent
same,AUC,in vivo [7]; 20 mg/kg,42.7 µg·h/mL
same,Cmax,in vivo [7]; 20 mg/kg,20.4 µg/mL
same,half-life,in vivo [7]; 20 mg/kg,0.87 h
same,AUC,in vivo [7]; 121 mg/kg,366 µg·h/mL
same,Cmax,in vivo [7]; 121 mg/kg,98.4 µg/mL
same,half-life,in vivo [7]; 121 mg/kg,1.29 h
same,MIC,A. baumannii,8 µg/mL
same,FOR (at 8 × MIC),E. coli ATCC 25922 [8],<2.32 × 10^−10
same,"q12h dose with maximal abrogation of bacterial burden, bladder","[9]; bladder, q12h for 3 days",25 mg/kg
same,required daily 24 h dose to cause maximal reductions in bacterial burden,[9]; kidney,100 mg/kg
same,"q12h dose with maximal abrogation of bacterial burden, kidney","[9]; kidney, q12h for 3 days",50 mg/kg
same,required daily 24 h dose to cause maximal reductions in bacterial burden,[9]; urine and bladder,50 mg/kg
same,"q12h dose with maximal abrogation of bacterial burden, urine","[9]; urine, q12h for 3 days",25 mg/kg
same,Cl,[10]; SC 20 mg/kg,7.8 mL/min/kg
same,Vd,[10]; SC 20 mg/kg,0.59 L/kg
same,Cl,[10]; SC 121 mg/kg,5.4 mL/min/kg
same,Vd,[10]; SC 121 mg/kg,0.60 L/kg
same,elimination kinetics,[10]; SC administration,first-order elimination
same,solubility,[5],373 mg/mL
same,MIC range,E. coli,8 to 16 µg/mL
same,MIC,E. coli; Escherichia coli,8 µg/mL
same,MIC90,E. coli; Escherichia coli,16 µg/mL
same,CC50,Red blood cell lysis,> 750 µM
same,tolerability of a single SC administration,[11],well tolerated
same,AUC,"[12]; single IV 25 mg/kg, 25 mg/kg",43.27 µg·h/mL
same,AUC,"[12]; single IV 50 mg/kg, 50 mg/kg",103.64 µg·h/mL
same,PK profile,[12]; single IV 1-50 mg/kg,linear
same,AUC,in vivo [13],580 µg·h/mL
